Here are results for one compound from patent US20110319360A1, “Method of including apoptosis/Cell death in leukemia cell using a purine nucleoside analogue” (U.S. Department of Veterans Affairs, priority 2010, published 2011).

Several values for one entry are separate records, joined by “and”; a condition that tells them apart may be missing. Equal entries are not always repeated. Where two headings read alike, the source gives them in different places.

One data set deals with CLL cells. The experiment in a line: Annexin V / 7-AAD apoptosis assay on CLL cells. The format is cell-based, human. The settings on record: for median percent drug-specific apoptosis: 72-hour; for median drug-specific apoptosis: n=43. The procedure:
Cells were cultured in either of two different media: Hybridoma SFM with 10% FBS or RPMI 1640 medium (Sigma) supplemented with 5% heat-inactivated human AB serum (Sigma), 50 units/ml penicillin, 50 μg/ml streptomycin, 2 mM L-glutamine, 25 mM HEPES (N2-hydroxyethylpiperazine-N′-2-ethanesulfonic acid), 100 μM MEM non-essential amino acids, and 1 mM sodium pyruvate (GIBCO). CLL cell sensitivity to LMP-420 was not affected by culture media, as determined by direct comparison of the apoptotic effects observed in both media for seven samples. After drug activity in the presence of human AB serum was confirmed, further studies were performed in Hybridoma SFM with 10% FBS.
CLL cells were cultured at 2×10^6 cells/ml in a volume of 100 μl/well in a U-bottom 96-well tissue culture plate (BD Biosciences, San Jose, Calif.) with either vehicle control or with drug. After 24, 48, or 72 hours of incubation, cells were analyzed for apoptosis by three different methods. For the annexin-based assay, 100 μl of Guava Nexin Reagent (Millipore, Billerica, Mass.) was added for 20 min. Cells were analyzed for annexin V-PE and 7-AAD staining with flow cytometric analysis by the Guava EasyCyte™ Plus system (Millipore). To facilitate comparison of samples with different levels of spontaneous apoptosis, drug-specific apoptosis is reported. Drug-specific apoptosis excludes background spontaneous apoptosis and was calculated as follows: 100%×(drug-induced apoptosis−spontaneous apoptosis)/(100−spontaneous apoptosis) (Reference 13).

Data set [1] can be described thus: Prior in vivo toxicity studies in rodents.
The next data set has as its target T1, human hERG (Homo sapiens, UniProt Q12809).
T1 construct: host or cells: HEK-293
Kind of data set: hERG [3H] Astemizole radioligand binding. The settings on record: 1.5 nM [3H] Astemizole, HEK-293 cells, 60 min, 25° C.; read-out: IC50 for inhibition of radioligand binding to the cardiac potassium channel. The protocol: This assay was performed by MDS Pharma Services. Human recombinant HEK-293 cells over-expressing the human hERG receptor were incubated for 60 min at 25° C. with 1.5 nM [^3H] Astemizole in the presence or absence of the indicated concentrations of LMP-420. Nonspecific binding (<10%) was determined by binding of radioligand in 10 μM Astemizole. All samples were determined in duplicate.

For data set [2] the following is noted: Reference 44; cited from earlier work.
Data set [3] relates to normal PBMCs. The experiment in a line: [3H]-thymidine proliferation assay, mitogen-stimulated normal PBMCs. The format is cell-based, human. The settings on record: for IC50: Homo sapiens, PBMC, 96 h, read-out: IC50 for suppression of mitogen-induced proliferation. The protocol: CLL cells (2×10^5 cells/well) were cultured in quadruplicate in a volume of 200 μl in 96-well tissue culture plates for 96 hours with 1 μM CpG-oligodeoxynucleotides (ODN) DSP30 (Reference 14) (Midland Certified Reagent Company, Midland, Tex.) and 100 units/ml IL-2 (R&D Systems) in the presence or absence of drug. As controls, cells were treated with media without DSP30/IL-2. Cells were incubated with 1 μCi/well [methyl-^3H]-thymidine (specific activity 6.7 Ci/mmol, PerkinElmer, Waltham, Mass., USA) for 14-18 hours prior to harvesting onto glass-fiber filters using a semi-automated cell harvester. [^3H]-thymidine incorporation was measured as counts per minute (cpm) using a Tri-Carb 2100 timed-resolved liquid scintillation counter (PerkinElmer). The same protocol was utilized for proliferation assays with normal PBMCs, with the exception that growth was stimulated by treatment with 10 μg/ml Phytohemagglutinin-P (PHA, Sigma), 5 μg/ml concanavalin A (ConA, Sigma), 2 μg/ml pokeweed mitogen (PWM, Sigma), 25 ng/ml muromonab-CD3 (α-CD3, Ortho Pharmaceuticals, Raritan, N.J.), or 50 ng/ml phorbol myristate acetate (PMA, Sigma) plus 1 μg/ml ionomycin (iono, Sigma) for 96 hours. Proliferation is reported as percent of control (drug-treated cpm/control-treated cpm×100%).

For data set [4], the system named is normal PBMCs. The experiment in a line: MTS cytotoxicity assay on PBMCs from normal donors. The format is cell-based, human. The settings on record: for EC50: Homo sapiens, PBMC. The protocol: For toxicity studies involving normal blood cells, normal volunteers were enrolled in an IRB-approved protocol for blood collection. PBMCs were isolated from heparin-anticoagulated blood by ficoll-Hypaque density gradient centrifugation.
2.5×10^5 CLL cells were incubated in triplicate or quadruplicate in a 96-well tissue culture plate (Costar, Corning, N.Y.) with serial dilutions of LMP-420, fludarabine, and/or recombinant TNF-alpha (R&D Systems, Minneapolis, Minn.) in Hybridoma serum free media (SFM) (GIBCO/Invitrogen, Carlsbad, Calif.) containing 10% heat-inactivated fetal bovine serum (FBS) (Sigma) at 37° C. with 5% CO2. After 72 hours, 20 μl CellTiter 96® AQueous One Solution Cell Proliferation Assay (Promega, Madison, Wis.) MTS (3-(4,5 dimethylthiazol-2-yl)-5-(3-carboxymethoxyphenyl-2-(4-sulfophenyl)-2H-tetrazolium) reagent was added to each well and the absorbance was read at 490 nm on a Thermomax microplate reader (Molecular Devices, Sunnyvale, Calif.). We calculated fractional cytotoxicity as performed previously (Reference 12), comparing absorbance at 490 nm from treated cells to control cells incubated with media alone.
The concentration effective at killing 50% of CLL cells compared to media alone (ED50) was calculated when 50% fractional cytotoxicity occurred within the range of serial dilutions tested (Reference 12). If the ED50 fell below or above this range, it was set to either the lowest or the highest concentration tested, respectively, for the purposes of statistical analyses and graphical representation.
A general note: Tetrazolium dyes change colour on reduction, which living cells bring about.

The test system of data set [5] is CD34+ hematopoietic progenitor cells (myeloid colonies). Kind of data set: Colony formation assay, myeloid colonies. The format is cell-based, human. The procedure:
CD34^+ hematopoietic progenitor cells were isolated from PBMCs from two healthy donors using the CD34 Microbead Kit (Miltenyi Biotec, Auburn, Calif.). 10^3 CD34^+-enriched cells were cultured in a 35 mm culture plate (1000 cells/plate) with or without LMP-420 or fludarabine in 1.1 ml Human Methylcellulose Complete Media (R&D Systems) according to the manufacturer's protocol. Plates were incubated for 14 days at 37° C. in humidified 5% CO2. Each treatment group was tested in triplicate. Colonies on plates were scored by two independent observers, blinded to the treatment groups, by microscopic evaluation under 10× and 20× power. Colonies were categorized as being of either erythroid or myeloid lineage.

T1 sequence (Q12809 whole entry): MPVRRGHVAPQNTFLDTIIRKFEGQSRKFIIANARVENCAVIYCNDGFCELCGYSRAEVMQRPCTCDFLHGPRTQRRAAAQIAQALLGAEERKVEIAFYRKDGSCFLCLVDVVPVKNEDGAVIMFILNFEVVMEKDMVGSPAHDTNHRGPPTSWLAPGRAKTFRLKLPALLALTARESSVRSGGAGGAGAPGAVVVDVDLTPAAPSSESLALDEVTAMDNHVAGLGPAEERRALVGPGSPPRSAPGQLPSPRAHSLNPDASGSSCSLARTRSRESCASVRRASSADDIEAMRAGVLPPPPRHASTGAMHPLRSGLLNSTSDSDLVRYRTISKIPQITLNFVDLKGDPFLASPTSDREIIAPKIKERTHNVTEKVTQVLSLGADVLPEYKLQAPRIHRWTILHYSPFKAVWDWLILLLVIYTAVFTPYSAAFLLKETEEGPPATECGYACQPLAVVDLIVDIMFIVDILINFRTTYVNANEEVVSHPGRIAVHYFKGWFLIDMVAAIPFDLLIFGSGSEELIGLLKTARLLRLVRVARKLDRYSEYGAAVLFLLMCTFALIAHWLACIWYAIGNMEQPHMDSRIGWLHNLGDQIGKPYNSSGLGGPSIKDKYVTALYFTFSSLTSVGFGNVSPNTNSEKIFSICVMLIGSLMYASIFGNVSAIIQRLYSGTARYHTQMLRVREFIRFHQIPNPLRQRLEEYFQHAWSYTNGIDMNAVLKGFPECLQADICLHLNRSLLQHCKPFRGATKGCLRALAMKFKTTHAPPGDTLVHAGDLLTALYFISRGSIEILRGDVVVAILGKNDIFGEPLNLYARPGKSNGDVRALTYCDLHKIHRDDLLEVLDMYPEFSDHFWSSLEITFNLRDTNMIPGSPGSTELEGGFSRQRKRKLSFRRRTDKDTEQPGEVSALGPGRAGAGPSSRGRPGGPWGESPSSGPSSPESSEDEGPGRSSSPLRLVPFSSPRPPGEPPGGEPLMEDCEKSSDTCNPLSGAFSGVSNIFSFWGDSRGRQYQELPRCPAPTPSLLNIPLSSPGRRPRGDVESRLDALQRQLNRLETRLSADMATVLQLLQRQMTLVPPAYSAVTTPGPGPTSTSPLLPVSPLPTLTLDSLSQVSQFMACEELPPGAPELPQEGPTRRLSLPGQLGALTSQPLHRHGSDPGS

In the case of `Nc1nc(Cl)c2ncn(CCCCCB(O)O)c2n1` [LMP-420, 2-amino-6-chloro-9-[5(dihydroxyboryl)-pentyl] purine], the “median percent drug-specific apoptosis” value in the data set with CLL cells (5,000 nM, mutated IgVH subgroup (n=30)) came to 34%; in the data set with CLL cells (5,000 nM, unmutated IgVH subgroup (n=10)) it was 59%. For the same compound, the median drug-specific apoptosis in the data set on CLL cells (5,000 nM, 24 hours) amounted to 15%; in the data set with CLL cells (5,000 nM, 48 hours), 28%; in the data set with CLL cells (5,000 nM, 72 hours), 32%. In addition, the “apoptosis, range” value with CLL cells (5,000 nM, patients with 11q22 deletion or complex cytogenetics (n=3)) was 13 to 58% and 13-58%. The EC50 is 5 µM in the data set with CLL cells (Homo sapiens, CLL cell, 72 hours, five-patient sample set, read-out: mean dose required for 50% drug-specific apoptosis by annexin V staining); greater than 512 µM in the data set with normal PBMCs [4] (72 hours, MTS, not reached at up to 512 μM, read-out: median ED50 on normal PBMCs); greater than 512 µM in the data set on normal PBMCs [4] (mean, PBMCs from healthy blood donors (n = 3-6), read-out: ED50 (μM), PBMC). Moreover, the “staining indicative of primary necrosis (7-AAD-positive, annexin-V-negative)” value in the data set with CLL cells (all samples, 72 hours) is reported as less than 2%. Besides, in the data set on CLL cells (highest dose (5,000 nM), 72 hours), the “samples in which apoptosis was induced (49 of 50)” value stood at 98%. In addition, in data set [1], the “peak plasma level at non-toxic doses” value is recorded as “greater than 10 μM”. The IC50 on human hERG is greater than 100 µM; in the data set on normal PBMCs [3] (Con A, 96 hours), 71 µM; in the data set on normal PBMCs [3] (PHA, 96 hours), greater than 90 µM; in the data set with normal PBMCs [3] (PMA/Iono, 96 hours) it was greater than 90 µM; in the data set with normal PBMCs [3] (PWM, 96 hours) it was greater than 90 µM; with normal PBMCs [3] (α-CD3, 96 hours) it was 33 µM. Further, the IC50 in data set [5] (Homo sapiens, 336 h, 14 days, healthy donors (n=2), read-out: mean IC50 for normal myeloid colony formation) came to 25 µM. Also, in data set [2], the oral bioavailability result is “orally bioavailable”. Also, the tolerability in vivo result in data set [2] is given as “well-tolerated in vivo”. Also, the “PBMC proliferation IC50 relative to ED50 in CLL cells” value in the data set with normal PBMCs [3] is given as 100- to 250 fold. Moreover, in the data set with normal PBMCs [4] (62 or 250 nM LMP-420 with fludarabine, 72 hours, n=3), the “potentiation of fludarabine cytotoxicity on normal PBMCs” value is on record as “did not potentiate”. Besides, the “myeloid colony IC50 relative to CLL ED50” value in data set [5] is “greater than 40 fold”.
